# Measurements from PubChem BioAssay (NCI).
# “And” between values parts separate entries of the source, which are not always exact repeats. Equal values may be shown once.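 Test compounds were applied to cells in 96-well plates for 48 hours at 5 doses. Here, GI50 denotes the concentration required for 50% inhibition of growth. TGI: concentration producing complete growth inhibition.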
# How the values were obtained:
# Experiment in all cases: NCI tumour cell line growth inhibition, 48 h
# [1] = test system: EKVX NSCLC
# [2] = test system: SF-539 CNS
# [3] = test system: SN12C renal
# [4] = test system: SK-MEL-28 melanoma
# [5] = test system: HOP-62 NSCLC
# [6] = test system: NCI-H460 lung
# [7] = test system: CAKI-1 renal
# [8] = test system: HOP-92 NSCLC
Structure (SMILES),GI50 [1],TGI [1],GI50 [2],TGI [2],GI50 [3],TGI [3],GI50 [4],TGI [4],GI50 [5],TGI [5],GI50 [6],TGI [6],GI50 [7],TGI [7],GI50 [8],TGI [8]
COc1cc(/C=C/C(=O)N2CCN(C(=O)c3cc(OC)c(OC)c(OC)c3)CC2)ccc1OCCCOc1cc2c(cc1OC)C(=O)N1CCC[C@H]1C=N2,0.794 µM,4.56 µM,0.248 µM,0.578 µM,0.303 µM,21.8 µM,0.212 µM,0.417 µM,0.326 µM,0.933 µM,0.333 µM,10.3 µM,1.54 µM,6.08 µM,0.297 µM,7.46 µM
O=C(O)c1ccc(C(=O)O)c(C(=O)Nc2ccc3c(c2)C(=O)c2ccccc2-3)c1,–,> 100 µM,–,> 100 µM,–,> 100 µM,–,> 100 µM,–,> 100 µM,–,> 100 µM,–,> 100 µM,–,> 100 µM
O=C(Nc1ccc(/C=C/c2ccc(NC(=O)c3cc(S(=O)(=O)O)c4cccnc4c3O)cc2S(=O)(=O)O)c(S(=O)(=O)O)c1)c1cc(S(=O)(=O)O)c2cccnc2c1O,> 50.9 µM,> 80.5 µM,11.3 µM,> 54.9 µM,4.36 µM,> 59.2 µM,25.5 µM,> 62.7 µM,10.9 µM,> 66.1 µM,22.9 µM,> 76.9 µM,34.3 µM,> 75.2 µM,28.5 µM,89.4 µM
N#C[Se]CCCNS(=O)(=O)C1CC2C=CC1C2 (centres undefined),0.491 µM,1.84 µM,0.413 µM,1.56 µM,0.494 µM,1.44 µM,0.486 µM,2.77 µM,0.482 µM,1.82 µM,0.316 µM,1.27 µM,0.416 µM,1.59 µM,1.17 µM,2.7 µM
O=C1c2cccc(NCCN=Cc3ccccc3O)c2C(=O)c2c(NCCN=Cc3ccccc3O)cccc21,1.87 µM,8.39 µM,1.48 µM,4.57 µM,0.269 µM,2.05 µM,1.54 µM,3.37 µM,0.663 µM,3.89 µM,0.399 µM,1.52 µM,0.953 µM,4.82 µM,0.584 µM,2.49 µM
O=C(Nc1n[nH]c2nnc(-c3cccnc3)cc12)C1CC1,> 20.9 µM,> 25 µM,2.79 µM,> 20.8 µM,> 11.7 µM,> 25 µM,> 16.9 µM,> 25 µM,10.1 µM,> 25 µM,8.13 µM,> 25 µM,3.87 µM,> 25 µM,> 25 µM,> 25 µM
CC(C)(C)CC(N)=O,–,> 100 µM,–,> 100 µM,–,> 100 µM,–,> 100 µM,–,> 100 µM,–,> 100 µM,–,> 100 µM,–,> 100 µM
Cn1cc(C2=C(c3cn(C)c4ccccc34)C(=O)NC2=O)c2ccccc21,–,–,0.738 µM,5.25 µM,3.47 µM,> 25 µM,3.71 µM,> 25 µM,1.92 µM,> 25 µM,1.12 µM,> 25 µM,1.2 µM,> 25 µM,1.45 µM,> 7.23 µM
O=c1ssc(Cl)c1Cl,–,> 10 µM,–,> 10 µM,–,> 10 µM,–,> 10 µM,–,> 10 µM,–,> 10 µM,–,> 10 µM,–,> 10 µM
CN1C/C=C/CCOc2cccc(c2)-c2ccnc(n2)Nc2cccc(c2)C1,0.0501 µM,0.666 µM,0.0338 µM,0.155 µM,0.0442 µM,2.73 µM,0.0349 µM,0.188 µM,0.0422 µM,0.376 µM,0.0347 µM,0.352 µM,0.039 µM,0.46 µM,0.0428 µM,0.242 µM
COc1cc2c(cc1OC)C1Cc3cc(OC)c(OC)cc3C(C2)N1C,–,> 100 µM,–,> 75 µM,–,> 100 µM,–,> 100 µM,–,> 100 µM,30.3 µM and 78.9 µM,> 100 µM,–,> 100 µM,–,> 75 µM
COc1ccc(Nc2cc(C)nc(NCCCNc3ccnc4cc(Cl)ccc34)n2)cc1,–,–,1.24 µM,2.64 µM,2.74 µM,10.8 µM,1.65 µM,3.16 µM,1.65 µM,3.93 µM,1.78 µM,3.8 µM,1.5 µM,2.87 µM,1.24 µM,3.3 µM
CCOc1cccc(-c2nc(N)nc(Nc3ccccc3SSc3ccccc3Nc3nc(N)nc(-c4cccc(OCC)c4)n3)n2)c1,3.56 µM,> 100 µM,9.2 µM,> 100 µM,2.32 µM,14.8 µM,10.7 µM,> 100 µM,1.57 µM,4.46 µM,3.03 µM,> 100 µM,3.29 µM,28.3 µM,2.77 µM,9.86 µM
CC(=O)c1cc(C(=O)c2ccc3c(c2)Sc2ccccc2N3)c2cc(C)ccn12,0.0873 µM,> 100 µM,0.0581 µM,0.826 µM,0.479 µM,> 100 µM,6.79 µM,> 100 µM,0.146 µM,> 100 µM,0.0465 µM,> 100 µM,0.053 µM,> 100 µM,> 100 µM,> 100 µM
CC(=O)N1N=C2/C(=C/c3ccc(Cl)cc3)CC(C)CC2C1c1ccc(Cl)cc1 (centres undefined),21.5 µM,92.7 µM,19.1 µM,38 µM,19.9 µM,40.4 µM,23.7 µM,53.8 µM,22.1 µM,54.6 µM,18.5 µM,41.8 µM,44.3 µM,> 100 µM,19.5 µM,54 µM
CC1(C)[C@@H](OC(=O)CCC(=O)O)CC[C@]2(C)[C@H]3C(=O)C=C4[C@@H]5C[C@@](C)(C(=O)O)CC[C@]5(C)CC[C@@]4(C)[C@]3(C)CC[C@@H]12,52.9 µM,84.8 µM,53.1 µM,76.7 µM,51.9 µM,105 µM,57.5 µM,85.4 µM,53.9 µM,79.5 µM,52.6 µM,76 µM,61.6 µM,157 µM,58.6 µM,87.2 µM
COC1=CC(c2ccc[nH]2)=N/C1=C\c1[nH]c(C)c(C(=O)CCCCC(=O)Oc2ccc3c(c2)CCC2C3CC[C@]3(C)[C@@H](O)CC[C@@H]23)c1C (some centres undefined),–,–,–,–,> 100 µM,> 100 µM,> 100 µM,> 100 µM,17.3 µM,> 100 µM,5.71 µM,> 100 µM,5.45 µM,> 100 µM,3.3 µM,29.2 µM

Structure (SMILES),GI50 [1],TGI [1],GI50 [2],TGI [2],GI50 [3],TGI [3],GI50 [4],TGI [4],GI50 [5],TGI [5],GI50 [6],TGI [6],GI50 [7],TGI [7],GI50 [8],TGI [8]
Cc1cc(C(C)(C)C)cc(CNC2CCCCC2)c1O,–,31.4 µM,–,33 µM,–,29.5 µM,–,30.9 µM,–,47.6 µM,–,28.4 µM,–,35.7 µM,–,29.3 µM
NCC1OC(OC2C(CO)OC(OC3C(O)C(N)CC(N)C3OC3OC(CO)C(O)CC3N)C2O)C(N)C(O)C1OC1OC(CO)C(O)C(O)C1O (centres undefined),> 50 µg/mL,> 50 µg/mL,> 50 µg/mL,> 50 µg/mL,> 50 µg/mL,> 50 µg/mL,> 50 µg/mL,> 50 µg/mL,> 50 µg/mL,> 50 µg/mL,> 50 µg/mL,> 50 µg/mL,> 50 µg/mL,> 50 µg/mL,14.7 µg/mL,> 50 µg/mL
CCN1Cc2nc3sc(C)c(C)c3c(=O)n2C=C1C,21.8 µM,> 100 µM,12.9 µM,34.4 µM,13.8 µM,62.1 µM,6.65 µM,21.3 µM,16.4 µM,75.1 µM,40.6 µM,> 100 µM,11.2 µM,53.5 µM,6.2 µM,46.4 µM
CC1=CC(N2C(=O)C(C)=CC2O)NC1=O (centres undefined),–,> 100 µM,–,> 100 µM,–,> 100 µM,–,> 100 µM,–,> 100 µM,–,> 100 µM,–,> 100 µM,–,> 100 µM
COc1cc([N+](=O)[O-])c(OC)cc1-c1nc2sc(Cl)cn2c1/C=N/NC1=NCCN1,2.33 µM,5.64 µM,0.184 µM,0.352 µM,1.67 µM,3.52 µM,–,–,1.2 µM,2.53 µM,0.322 µM,> 100 µM,12.9 µM,51.7 µM,–,–
CC1OC(OC2C(OC3CCC4(C)C(CCC5(C)C4CC=C4C6CC(C)(C)CCC6(C(=O)O)CCC45C)C3(C)CO)OCC(O)C2O)C(O)C(O)C1O (centres undefined),–,40 µM,–,32.8 µM,–,42 µM,–,39.8 µM,–,> 100 µM,–,43 µM,–,36.6 µM,–,27.3 µM
CS(=O)(=O)CC(=O)c1ccccc1,–,> 100 µM,–,> 100 µM,–,> 100 µM,–,> 100 µM,–,> 100 µM,–,> 100 µM,–,–,–,–
c1ccc2cc(C[n+]3ccn(CCCCCCCCCCn4cc[n+](Cc5ccc6ccccc6c5)c4)c3)ccc2c1,0.442 µM,9.07 µM,1.19 µM,6.54 µM,–,–,1.3 µM,5.66 µM,1.09 µM,7.24 µM,0.376 µM,10.1 µM,–,–,0.396 µM,2.96 µM
CC(=O)Nc1ccc(COC(O)CN2CCCCC2)cc1[N+](=O)[O-] (centres undefined),–,–,–,> 100 µM,–,> 100 µM,–,> 100 µM,–,–,–,> 100 µM,–,> 100 µM,–,> 100 µM
COc1ccc(C2=NN(C(=O)c3cc(OC)c(OC)c(OC)c3)C(c3ccc(N(C)C)cc3)C2)cc1 (centres undefined),1.43 µM,> 100 µM,0.294 µM,1.52 µM,2.6 µM,> 100 µM,0.511 µM,> 59.5 µM,0.57 µM,–,0.397 µM,–,–,–,0.886 µM,> 100 µM
Cc1ccc(NC(=O)c2sc3nc4c(cc3c2N)C(=O)CCC4)cc1C,–,–,–,–,0.797 µM,> 100 µM,1.86 µM,> 100 µM,0.733 µM,> 100 µM,0.399 µM,> 43.5 µM,0.661 µM,> 100 µM,–,> 100 µM
O=C(Nc1ccccc1)c1cc(S(=O)(=O)Nc2nc3ccccc3o2)c(SCc2ccccc2)cc1Cl,15.3 µM,31.3 µM,15.8 µM,31.1 µM,20.3 µM,46.2 µM,22.7 µM,51.9 µM,20.2 µM,42.5 µM,20.8 µM,77 µM,19.3 µM,35.5 µM,–,–
O=C(c1ccco1)c1c(C(F)(F)F)n([O-])c2ccc(Cl)cc2[n+]1=O,0.561 µM,2.12 µM,0.37 µM,0.924 µM,1.35 µM,3.13 µM,2.04 µM,5.71 µM,0.194 µM,0.617 µM,0.547 µM,–,0.961 µM,4.21 µM,–,–
OCc1ccc(N2CCc3ccccc3C2)cc1Cl,–,–,41.9 µM,> 100 µM,11.4 µM,> 100 µM,23 µM,> 82.9 µM,0.0222 µM,24.7 µM,< 0.0179 µM,0.174 µM,0.568 µM,14.1 µM,0.0448 µM,9.28 µM
COc1cc(-c2cc(-c3cc(OC)c(OC)c(OC)c3)nc3nc(N)[nH]c(=O)c23)ccc1Oc1ccnc2cc(Cl)ccc12,–,–,1.16 µM,3.18 µM,3.83 µM,41.8 µM,4.75 µM,> 100 µM,2.35 µM,16.7 µM,3.45 µM,37.7 µM,2.7 µM,> 100 µM,–,–
COc1ccc(/C=C/C(=O)c2ccc(OC)c(OC)c2)cc1O,–,–,2.49 µM,7.34 µM,3.74 µM,15.6 µM,12.9 µM,27.4 µM,3.61 µM,14.5 µM,3.44 µM,11.8 µM,18.1 µM,> 100 µM,2.02 µM,13.6 µM
Cn1c(=O)c(Oc2ccc(F)cc2F)cc2cnc(NC3CCS(=O)(=O)CC3)nc21,–,–,> 25 µM,> 25 µM,> 25 µM,> 25 µM,> 25 µM,> 25 µM,> 14.8 µM,> 25 µM,> 25 µM,> 25 µM,> 25 µM,> 25 µM,5.23 µM,> 25 µM
